Reference: article PMC10545696, “Fast functional mapping of ligand-gated ion channels” (Communications Biology, 2023)

Target: T1, P2X2 (His-rP2x2-StrepII) (Rattus norvegicus, UniProt P49653)
T1 construct: gene P2rx2; His tag and StrepII tag; homotrimer
T1 sequence (P49653 1-472): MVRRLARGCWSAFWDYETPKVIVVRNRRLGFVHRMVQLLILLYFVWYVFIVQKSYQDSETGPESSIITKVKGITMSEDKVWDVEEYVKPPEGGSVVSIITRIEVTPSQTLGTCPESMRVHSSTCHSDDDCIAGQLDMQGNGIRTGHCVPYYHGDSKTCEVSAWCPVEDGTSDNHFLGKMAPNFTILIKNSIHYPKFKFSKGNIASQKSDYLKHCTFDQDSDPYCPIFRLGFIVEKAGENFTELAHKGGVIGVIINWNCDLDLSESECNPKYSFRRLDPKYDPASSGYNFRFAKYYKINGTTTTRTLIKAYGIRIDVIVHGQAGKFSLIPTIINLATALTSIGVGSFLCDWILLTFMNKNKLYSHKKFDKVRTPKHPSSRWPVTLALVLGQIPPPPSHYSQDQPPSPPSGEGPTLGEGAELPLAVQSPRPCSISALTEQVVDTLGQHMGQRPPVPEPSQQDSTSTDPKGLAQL
Experiment: whole-cell patch clamp, HEK293, multi-step microfluidic application
Type: cell-based

EC50: 1.5 ± 0.02 µM
Structure (SMILES): Nc1ncnc2c1ncn2[C@@H]1O[C@H](COP(=O)(O)OP(=O)(O)OP(=O)(O)O)[C@@H](O)[C@H]1O [ATP]
